Assay type in all cases: cell-based
Assay [1] deals with cultured DRG neurons (transected axons). Kind of assay: Axon degeneration after transection of axons of cultured DRG neurons (Wallerian degeneration). On the procedure: As a first step in examining the role of NAD in Wallerian degeneration, we used an ultra-sensitive high-performance liquid chromatography (HPLC) method (Micheli and Sestini, 1997) to measure the concentration of NAD and its derivatives in degenerating axons. To do this, the acidic lysates were prepared from axonal segments collected at different time points after transecting the axons from cultured dorsal root ganglia (DRG) and resolved by reverse-phase chromatography. 2 hr after axotomy, when the transected axons were still morphologically indistinguishable from their uncut controls, NAD levels began to decrease. This NAD decrease continued over the course of degeneration, reaching about 50% at 4 hr post-axotomy, to almost undetectable levels by 6 hr after axotomy, when early morphological signs of degeneration began to develop. […] By a similar approach of alkaline extraction (Micheli and Sestini, 1997), it has been difficult for us to detect NADH in the axonal extracts, presumably due to the low abundance of NADH and the high NAD/NADH ratio reported in mammalian cells (Zhang et al., 2002, Kasischke et al., 2004, Kannurpatti et al., 2004).
To definitively determine whether preventing the local decrease in NAD levels could mediate axon protection, we employed soma-free axonal segments that have been separated from their soma as models to examine the protective effects of different pharmacological treatments. It has been shown that exogenously provided NAD, when directly added to the culture medium of DRG neurons, can be transported across the axonal membrane (Araki et al., 2004). Thus, we first examined the protective effects of different concentrations of NAD added to the culture before or after axon transection and removal of ganglia.
To further assess the local and nuclear contribution to such an NAD-dependent protection, we compared the protective effects of NAD provided at different time points. […] In this respect, our results are inconsistent with those shown by Araki et al (2004), possibly due to the different concentrations of NAD used in our studies (1-20 mM) and by Araki et al (0.1 to 1 mM).
We next attempted to explore the possible mechanisms underlying this local NAD-dependent axon protection. […] A possible explanation for this discrepancy between Araki et al (2004) and our results is the different approaches used to block Sirt1 activity. […] It is known that […], other sirturins exist and some of these proteins are localized in the cytoplasmic compartment (Onyango et al., 2002; North et al., 2003).

In assay [2] the test system is superior sympathetic ganglia (SCGs) and other neuronal types expressing mutant Nmnat1. As to the kind of experiment: Axon degeneration induced by over-expression of mutant Nmnat1 in cultured neurons. Conditions: no axotomy. The source says:
We next examined whether decreasing neuronal NAD levels is sufficient to induce axon degeneration in intact neurons. By sequence alignment, a conserved (T/H)XGH motif has been identified in the N-terminus of all Nmnat proteins from different species (Saridakis et al., 2001). This motif likely represents a critical active site, as a mutant enzyme with a point mutation at the last amino acid (H to A) loses its catalytic activity but retains its ability to bind the nicotinamide mononucleotide (NMN) substrate (Saridakis et al., 2001). Thus, we made a mutant Nmnat1 in which the critical histidine residue at amino acid 24 in this active site motif was substituted with alanine. Since most of the NAD in mammalian cells, except for liver and kidney cells, is synthesized by recycling degraded NAD products such as nicotinamide via the salvage pathway (Shibata et al., 1991, Rongvaux et al., 2003), over-expressing this mutant Nmnat1 would be expected to sequester the limited substrates, thus decreasing cellular NAD levels. […] As a result, neurons expressing this mutant Nmnat1 developed signs of axon degeneration in the absence of axotomy, concomitant with decreases in neuronal NAD and ATP levels.
In addition, a caspase inhibitor Z-DEVD-fink also had no effect on the axon degeneration induced by this mutant Nmnat1 expression.

Assay [3] deals with cultured hippocampal neurons. Kind of assay: Synaptic loss and process degeneration in cultured hippocampal neurons (dominant-negative Nmnat1). The source says:
We next attempted to examine whether decreasing NAD levels can induce similar “dying-back” axon degeneration in neurons with established synaptic connections. Such experiments might allow us to assess whether the degenerative processes in axons and other neuronal structures, including synaptic structures and dendritic processes, share similar mechanisms. To do this, we introduced both wild type and dominant negative Nmnat1 into cultured hippocampal neurons at 20 days in vitro (DIV 20), when their synaptic connections have formed and matured (Brewer et al. 1993), and examined their effects on axons as well as dendrites and synapses. As a conventional approach to visualize these neuronal structures, we also co-infected the hippocampal neurons with HSV expressing YFP. […] Moreover, neuronal NAD levels declined from 24-48 hr post-infection with viruses expressing dominant-negative Nmnat1 but not wild type Nmnat1 or YFP. Thus, we decided to focus our analysis on the first 60 hours post-infection.
To monitor changes in synaptic structures, we co-infected DIV20 neurons with HSV expressing YFP and wild type or the mutant Nmnat1, and quantified both spine density and the length and branching of axons and dendrites. As the density of dendritic spines has been considered a reliable indicator for synapse number (reviewed by Hering and Sheng, 2001), we performed high-resolution YFP imaging in neurons co-expressing YFP and Nmnat1 proteins at the indicated time points post-infection to measure the spine densities in these co-infected neurons. Dendrite length and branching patterns were analyzed using Sholl's method of regularly spaced concentric circles centered on the neuronal soma (Sholl, 1953). […]
In the experiments described above, we also performed immunostaining with antibodies against the presynaptic marker bassoon, and found a decrease of positively-stained synaptic structures. However, due to the complex morphology of the axons that makes it extremely difficult to quantify the axonal length in DIV20 hippocampal neurons, we […]. […]

Take `NC(=O)c1ccc[n+]([C@@H]2O[C@H](COP(=O)([O-])OP(=O)(O)OC[C@H]3O[C@@H](n4cnc5c(N)ncnc54)[C@H](O)[C@@H]3O)[C@@H](O)[C@H]2O)c1` [NAD, nicotinamide adenine dinucleotide]: in assay [1] (added to culture medium of DRG neurons), the “concentrations resulting in significant protective effects on axon degeneration” value lay within 1 to 20 mM.
Regarding `COC(=O)CC[C@H](NC(=O)[C@H](CC(=O)OC)NC(=O)OCc1ccccc1)C(=O)N[C@H](C(=O)N[C@@H](CC(=O)OC)C(=O)CF)C(C)C` [Z-DEVD-fink], in assay [2], the “axon degeneration induced by mutant Nmnat1 expression” value is reported as “no effect”.
With `Oc1ccc(C=Cc2cc(O)cc(O)c2)cc1` [resveratrol], the “changes (spine density, dendrites) induced by dominant-negative Nmnat1” value in assay [3] (DIV20 hippocampal neurons) was “did not affect the changes”. The “extent of axon degeneration” value in assay [1] (a range of concentrations) is “failed to observe any significant change”.
Turning to `CC(NC(=O)c1ccccc1/N=C/c1c(O)ccc2ccccc12)c1ccccc1` (stereo not drawn) [sirtinol], in assay [3] (from 50 to 100 μM, up to 72 hr), the “dendritic spine quantity or structure, compound alone” value is “did not induce significant changes”. Also, in assay [1] (sirturin inhibitors, nicotinamide at 50 μM), the “attenuation of the protective effect of Nmnat1 or NAD” value was “did not attenuate the protective effect”.

The record behind these values is patent US20060211744A1, “3-Pyridinecarboxamide reduces nerve degeneration” (Children's Medical Center, priority 2005, published 2006).
